Test results from patent publication US20230416256A1, “SMALL MOLECULE INHIBITORS OF NF-kB INDUCING KINASE” (Janssen Pharmaceutica NV, priority 2020, published 2023).
Like-named read-outs stand apart in the source and are kept apart here.

Key:
[1] = target: recombinant human NF-kappaB-inducing kinase (NIK/MAP3K14) (Homo sapiens, UniProt Q99558); assay: Inhibition of auto-phosphorylation of recombinant human NIK/MAP3K14 activity (AlphaScreen); type: biochemical; conditions: GST-tagged NIK/MAP3K14 1 nM, 5 μM ATP, 2 h at 25° C.; average of values obtained
Method: Inhibition of Auto-Phosphorylation of Recombinant Human NF-kappaB-Inducing Kinase (NIK/MAP3K14) Activity (AlphaScreen®)
NIK/MAP3K14 auto-phosphorylation activity was measured using the AlphaScreen® (αscreen) format (Perkin Elmer). All compounds tested were dissolved in dimethyl sulfoxide (DMSO) and further dilutions were made in assay buffer. The final DMSO concentration was 0.7% (v/v) in assays. The assay buffer was 50 mM Tris pH 7.5 containing 1 mM EGTA (ethylene glycol tetraacetic acid), 1 mM DTT (dithiothreitol), 0.1 mM Na3VO4, 5 mM MgCl2, and 0.01% Tween® 20. The assays were carried out in 384 well Proxiplates (Perkin Elmer). The incubations consisted of the compound, 5 μM Adenosine-5′-triphosphate (ATP), and 1 nM NIK/MAP3K14. Incubations were initiated by the addition of GST-tagged NIK/MAP3K14 enzyme, carried out for 2 h at 25° C. and terminated by addition of stop buffer containing anti-phospho-IKK Ser176/180 antibody. Protein A Acceptor and Glutathione-Donor beads were added before reading using an EnVision Multilabel Plate Reader (Perkin Elmer). The signal obtained in the wells was normalized using high (full enzyme activity, 0.7% DMSO) and low controls (no enzyme activity, 0.7% DMSO, no ATP). IC50's were determined by fitting a sigmoidal curve to % inhibition of control versus Log10 compound concentration.

[2] = system: p-IKKα levels in L363 (NIK translocated multiple myeloma) cells; assay: Effect of compounds on p-IKKα levels in L363 cells (AlphaLISA SureFire Ultra); type: cell-based, human; conditions: 10 μM MG132, 6 h, average of values obtained, read-out: Assay 2 IC50
Method: Effect of Compounds on p-IKKα Levels in L363 (NIK Translocated Multiple Myeloma) Cells
All compounds tested were dissolved and serially diluted in DMSO, 1:3 dilution for 11 points in an Echo compatible plate. 100% DMSO was added to columns 12 and 24 of the plate to serve as high and low signal controls. This compound plate was used to spot 20 nL of compound or DMSO into a Greiner 384 well TC plate (781080). The final DMSO concentration was 0.3% (v/v) in cell assays. Human L363 cells (ATCC) were cultured in RPMI1640 medium supplemented with GlutaMax, non-essential amino acids, sodium pyruvate and 10% fetal bovine serum. Cells were routinely maintained at densities of […]-2×10^6 cells per mL at 37° C. in a humidified 5% CO2 atmosphere incubator. Cells were passaged twice a week splitting back to obtain the low density. The day before the assay, cells were washed twice in HBSS (Hank's Balanced Salt Solution), resuspended in Dulbecco's Modified Eagle Medium (DMEM)+0.5% IgG and protease free BSA (Jackson Immuno Research Laboratories), +/−250 ng/ml recombinant human B-cell activating factor (BAFF/BLyS/TNFSF13B) and incubated overnight at 37° C. in a humidified 5% CO2 atmosphere (bulk stimulation with or without BAFF). The next day, the cell concentration was adjusted to 1×10^7 cells/ml in DMEM+/−250 ng/ml BAFF+/10 μM MG132 and plated at […] into compound or DMSO spotted 384 well TC plates. Seeded cells were incubated at 37° C. in a humidified 5% CO2 atmosphere for 6 h. After 6 h, the plates were removed from the incubator and cell lysis was achieved by the addition of 2.5 μl 5×lysis buffer containing protease and phosphatase inhibitors, followed by shaking on a plate shaker at room temperature for 15 min. At the end of this incubation, lysed cells were sequentially treated and incubated with acceptor and donor bead mixes according to the manufacturer's protocol for a 1 plate/2-incubation suspension cell assay (AlphaLISA SureFire Ultra p-IKKa (Ser 176/180) Assay Kit (Perkin Elmer). Plates were read using an EnVision Multilabel Plate Reader (Perkin Elmer). Within an experiment, a concentration response curve for each compound was run in duplicate. The signal obtained in the test wells was normalized using high signal (BAFF stimulated cells, DMSO, MG132) and low signal (unstimulated cells, DMSO) controls. To determine the IC50, a sigmoidal curve was fitted to the plot of % inhibition versus Log10 compound concentration.

[3] = Homo sapiens, L-363, 6 h, 250 ng/ml BAFF stimulated
[4] = Homo sapiens, L-363, 250 ng/ml BAFF stimulated

Chain of recombinant human NF-kappaB-inducing kinase (NIK/MAP3K14) (Q99558 whole entry): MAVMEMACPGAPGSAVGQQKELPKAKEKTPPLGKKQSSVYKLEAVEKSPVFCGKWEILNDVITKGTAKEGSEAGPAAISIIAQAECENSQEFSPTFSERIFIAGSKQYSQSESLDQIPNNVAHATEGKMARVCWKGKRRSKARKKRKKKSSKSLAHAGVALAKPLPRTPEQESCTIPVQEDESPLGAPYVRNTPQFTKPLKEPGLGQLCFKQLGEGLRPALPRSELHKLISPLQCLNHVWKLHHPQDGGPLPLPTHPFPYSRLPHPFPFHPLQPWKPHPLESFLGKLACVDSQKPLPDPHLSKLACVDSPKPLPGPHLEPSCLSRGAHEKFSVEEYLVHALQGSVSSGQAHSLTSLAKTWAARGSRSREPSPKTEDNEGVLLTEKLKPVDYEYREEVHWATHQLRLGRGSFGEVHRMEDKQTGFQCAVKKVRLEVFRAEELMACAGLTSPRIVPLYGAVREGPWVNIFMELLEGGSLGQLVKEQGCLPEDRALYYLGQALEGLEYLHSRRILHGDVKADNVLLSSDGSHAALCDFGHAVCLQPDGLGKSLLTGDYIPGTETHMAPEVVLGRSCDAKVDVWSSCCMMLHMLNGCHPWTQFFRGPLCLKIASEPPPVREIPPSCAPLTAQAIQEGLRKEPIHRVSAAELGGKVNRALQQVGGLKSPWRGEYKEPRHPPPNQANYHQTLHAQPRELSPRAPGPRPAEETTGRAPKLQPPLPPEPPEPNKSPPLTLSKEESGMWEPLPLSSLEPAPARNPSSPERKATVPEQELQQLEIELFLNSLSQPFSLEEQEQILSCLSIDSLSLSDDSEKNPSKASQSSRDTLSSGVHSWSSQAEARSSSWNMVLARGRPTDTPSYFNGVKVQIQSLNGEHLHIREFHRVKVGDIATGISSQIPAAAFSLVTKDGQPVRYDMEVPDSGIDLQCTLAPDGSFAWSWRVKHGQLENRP

SMILES | IC50 [1] | IC50 [2, 3] | IC50 ([2]; 250 ng/ml BAFF stimulated) | IC50 [2, 4]
C[C@]1(O)C[C@@](O)(c2cccc(-c3csc(-c4c[nH]c5ncccc45)n3)c2)c2ncccc21 (single isomer, unassigned) [Example 108] | 100 to 500 nM | > 500 nM | – | –
CN1CC[C@@](O)(c2cccc(-n3ncc(-c4c[nH]c5ncccc45)n3)c2)C1=O (single isomer, unassigned) [Example 109] | ≤ 100 nM | – | – | > 500 nM
CN1CC[C@@](O)(c2cccc(-c3csc(-n4ccc5ncccc54)n3)c2)C1=O (single isomer, unassigned) [Example 111] | 100 to 500 nM | – | – | > 500 nM
CN1CC[C@@](O)(c2cccc(-n3cnc(-c4c[nH]c5ncccc45)n3)c2)C1=O (single isomer, unassigned) [Example 121] | ≤ 100 nM | – | – | > 500 nM
CN1CC[C@@](O)(c2cccc(-n3ccc(-c4c[nH]c5ncccc45)n3)c2)C1=O (single isomer, unassigned) [Example 122] | ≤ 100 nM | – | – | > 500 nM
CN1CC[C@@](O)(c2cccc(-n3cnc(-c4c[nH]c5ncccc45)c3)c2)C1=O (single isomer, unassigned) [Example 124] | > 500 nM | – | – | > 500 nM
Cc1cnc2[nH]cc(-c3nc(-c4cccc([C@]5(O)CCN(C)C5=O)c4)cs3)c2c1 [Example 7, (R)-3-Hydroxy-1-methyl-3-(3-(2-(5-methyl-1H-pyrrolo[2,3-b]pyridin-3-yl)thiazol-4-yl)phenyl)pyrrolidin-2-one] | ≤ 100 nM | – | – | 100 to 500 nM
CN1CC[C@@](O)(c2cccc(-c3nc(-c4c[nH]c5ncccc45)cs3)c2)C1=O [Example 8, (R)-3-(3-(4-(1H-Pyrrolo[2,3-b]pyridin-3-yl)thiazol-2-yl)phenyl)-3-hydroxy-1-methylpyrrolidin-2-one] | ≤ 100 nM | – | – | > 500 nM
CN1CC[C@@](O)(c2cccc(-c3ncc(-c4c[nH]c5ncccc45)s3)c2)C1=O [Example 9, (R)-3-(3-(5-(1H-Pyrrolo[2,3-b]pyridin-3-yl)thiazol-2-yl)phenyl)-3-hydroxy-1-methylpyrrolidin-2-one] | 100 to 500 nM | – | – | > 500 nM
O[C@@]1(c2cccc(-c3csc(-c4c[nH]c5nccnc45)n3)c2)C=Cn2ccnc21 [Example 13, (R)-7-(3-(2-(5H-Pyrrolo[2,3-b]pyrazin-7-yl)thiazol-4-yl)phenyl)-7H-pyrrolo[1,2-a]imidazol-7-ol] | ≤ 100 nM | > 500 nM | – | –
O[C@]1(c2cccc(-c3csc(-c4c[nH]c5nccnc45)n3)c2)C=Cn2ccnc21 [Example 14, (S)-7-(3-(2-(5H-Pyrrolo[2,3-b]pyrazin-7-yl)thiazol-4-yl)phenyl)-7H-pyrrolo[1,2-a]imidazol-7-ol] | > 500 nM | > 500 nM | – | –
O[C@@]1(c2cccc(-c3csc(-c4c[nH]c5ncccc45)n3)c2)COc2cccnc21 [Example 16, (R)-3-(3-(2-(1H-Pyrrolo[2,3-b]pyridin-3-yl)thiazol-4-yl)phenyl)-2,3-dihydrofuro[3,2-b]pyridin-3-ol] | ≤ 100 nM | – | 100 to 500 nM | –

Second part, led by results:

IC50 [1] | IC50 [2, 3] | IC50 ([2]; 250 ng/ml BAFF stimulated) | SMILES | IC50 [2, 4]
> 500 nM | > 500 nM | – | C[C@]1(O)C[C@](O)(c2cccc(-c3csc(-c4c[nH]c5ncccc45)n3)c2)c2ncccc21 (single isomer, unassigned) [Example 105] | –
> 500 nM | > 500 nM | – | C[C@@]1(O)C[C@](O)(c2cccc(-c3csc(-c4c[nH]c5ncccc45)n3)c2)c2ncccc21 (single isomer, unassigned) [Example 107] | –
≤ 100 nM | > 500 nM | – | Cc1noc2c1CC[C@@]2(O)c1cccc(-c2csc(-c3c[nH]c4ncccc34)n2)c1 (single isomer, unassigned) [Example 126] | –
≤ 100 nM | ≤ 100 nM | – | O[C@@]1(c2cccc(-c3csc(-c4c[nH]c5ncccc45)n3)c2)CCn2ccnc21 [Example 10, (R)-7-(3-(2-(1H-Pyrrolo[2,3-b]pyridin-3-yl)thiazol-4-yl)phenyl)-6,7-dihydro-5H-pyrrolo[1,2-a]imidazol-7-ol] | –
≤ 100 nM | ≤ 100 nM | – | O[C@@]1(c2cccc(-c3nc(-c4c[nH]c5nccnc45)cs3)c2)CCn2ccnc21 [Example 11, (R)-7-(3-(4-(5H-Pyrrolo[2,3-b]pyrazin-7-yl)thiazol-2-yl)phenyl)-6,7-dihydro-5H-pyrrolo[1,2-a]imidazol-7-ol] | –
100 to 500 nM | > 500 nM | – | O[C@]1(c2cccc(-c3nc(-c4c[nH]c5nccnc45)cs3)c2)CCn2ccnc21 [Example 12, (S)-7-(3-(4-(5H-Pyrrolo[2,3-b]pyrazin-7-yl)thiazol-2-yl)phenyl)-6,7-dihydro-5H-pyrrolo[1,2-a]imidazol-7-ol] | –
≤ 100 nM | 100 to 500 nM | – | O[C@@]1(c2cccc(-c3nc(-c4c[nH]c5ncccc45)cs3)c2)CCn2ccnc21 [Example 15, (R)-7-(3-(4-(1H-Pyrrolo[2,3-b]pyridin-3-yl)thiazol-2-yl)phenyl)-6,7-dihydro-5H-pyrrolo[1,2-a]imidazol-7-ol] | –
≤ 100 nM | – | ≤ 100 nM | O[C@@]1(c2cccc(-c3csc(-c4c[nH]c5nccnc45)n3)c2)COc2cccnc21 [Example 17, (R)-3-(3-(2-(5H-Pyrrolo[2,3-b]pyrazin-7-yl)thiazol-4-yl)phenyl)-2,3-dihydrofuro[3,2-b]pyridin-3-ol] | –
> 500 nM | > 500 nM | – | [2H]c1[nH]c2nccnc2c1-c1nc(-c2cccc([C@@]3(O)CCn4ccnc43)c2)cs1 [Example 18, (S)-7-(3-(2-(5H-Pyrrolo[2,3-b]pyrazin-7-yl-6-d)thiazol-4-yl)phenyl)-6,7-dihydro-5H-pyrrolo[1,2-a]imidazol-7-ol] | –
> 500 nM | > 500 nM | – | [2H]c1cnc2[nH]cc(-c3nc(-c4cccc([C@@]5(O)CCn6ccnc65)c4)cs3)c2n1 [Example 19, (S)-7-(3-(2-(5H-Pyrrolo[2,3-b]pyrazin-7-yl-2-d)thiazol-4-yl)phenyl)-6,7-dihydro-5H-pyrrolo[1,2-a]imidazol-7-ol] | –
≤ 100 nM | ≤ 100 nM | – | O[C@@]1(c2cccc(-c3csc(-c4c[nH]c5ncncc45)n3)c2)CCn2ccnc21 [Example 20, (R)-7-(3-(2-(7H-Pyrrolo[2,3-d]pyrimidin-5-yl)thiazol-4-yl)phenyl)-6,7-dihydro-5H-pyrrolo[1,2-a]imidazol-7-ol] | –
100 to 500 nM | > 500 nM | – | O[C@]1(c2cccc(-c3csc(-c4c[nH]c5ncncc45)n3)c2)CCn2ccnc21 [Example 21, (S)-7-(3-(2-(7H-Pyrrolo[2,3-d]pyrimidin-5-yl)thiazol-4-yl)phenyl)-6,7-dihydro-5H-pyrrolo[1,2-a]imidazol-7-ol] | –
≤ 100 nM | ≤ 100 nM | – | O[C@@]1(c2cccc(-c3csc(-c4c[nH]c5ncc(F)cc45)n3)c2)CCn2ccnc21 [Example 24, (R)-7-(3-(2-(5-Fluoro-1H-pyrrolo[2,3-b]pyridin-3-yl)thiazol-4-yl)phenyl)-6,7-dihydro-5H-pyrrolo[1,2-a]imidazol-7-ol] | –
